Measured values reported in patent publication US20260015333A1, “COMPOUNDS AND METHODS FOR INHIBITION OF THE EVOLUTION OF […]” (priority 2022, published 2026).

Columns and labels:
Mfd = Mfd (Salmonella typhimurium, UniProt Q8ZQ01); test: Binding affinity analysis by microscale thermophoresis; parameters: species or system S. typhimurium; settings: labeled Mfd 50 nM
Protocol: FIGS. 2A-2D depict how ARM-1 affects Mfd's biochemical activity. FIG. 2A depicts how the kd of ARM-1 was determined using microscale thermophoresis. Data shown represent a minimum of three independent experiments. FIG. 2B depicts a NADH-coupled ATPase assay. ATP hydrolysis by Mfd was coupled to NADH oxidation. Phosphoenolpyruvate is converted to pyruvate by pyruvate kinase, transferring a phosphate group onto ADP, which is only present in the reaction following ATP hydrolysis by Mfd. Pyruvate is then converted to lactate by lactate dehydrogenase, oxidizing NADH to NAD^+. Absorbance at 340 nm by NADH is used to monitor the reaction. Data shown represent a minimum of 3 biological replicates. FIG. 2C depicts a transcription roadblock assay. A P32-labled 176 bp PCR fragment was incubated with E. coli RNAP along with saturating concentrations of ATP, GTP, and UTP. 100 nM S. typhimurium ST19 Mfd preincubated with indicated concentrations of ARM-1 was added and the reaction allowed to proceed for 6 minutes. DNA products were then resolved on a polyacrylamide gel and analyzed by phosphorimaging. […] Quantification of these gels is shown below each lane. […]
Microscale thermophoresis was performed on a Monolith (NanoTemper). […] MST experiments were performed under default settings apart from fluorescence intensity set to 100%. […]

S. typhimurium ST19 = test: Invasion and infection efficiency in HeLa cells; type: cell-based; settings: 31.25 μM ARM-1, compared to untreated WT
Protocol: FIGS. 3A-3C depict how ARM-1 reduces mutation frequency in culture and during infection. FIG. 3A depicts a Luria-Delbruck fluctuation assay with ARM-1 treatment. Single colonies of WT and Δmfd S. typhimurium ST19 were used to inoculate overnight cultures with appropriate antibiotic selection. Cultures were then diluted back to OD600 0.0005 and grown to OD600 0.5 with or without 100 μM ARM-1 treatment. Samples were plated on 80 ng/ml ciprofloxacin and grown overnight, then enumerated the following day. Data shown are the result of a minimum of 50 replicates. FIG. 3B depicts the invasion and infection efficiency in the presence of ARM-1. WT S. typhimurium ST19 in mid-log phase growth was used to infect HeLa cells. Invasion was allowed to proceed for 1 hour before uninternalized bacteria were removed and fresh media applied, containing vehicle control or 31.25 μM ARM-1. At the indicated timepoints, HeLa cells were lysed using 1% Triton-H2O and intracellular bacteria serially diluted and plated on LB for CFU enumeration. FIG. 3C depicts mutation frequency post mammalian cell infection. WT and Δmfd S. typhimurium ST19 were used to infect HeLa cells as described in FIG. 3B. Following infection, intracellular bacteria were harvested and plated on 50 μg/mL 5-fluorocytosine and grown overnight. Mutants were enumerated the following morning. […]

HeLa cells = test: Mammalian cell cytotoxicity (CellTox Green); type: cell-based; settings: during the timeframe of the infection experiment
Protocol: FIGS. 9A-9B depict the cytotoxicity of ARM-1 against indicated mammalian cell lines. FIG. 9A depicts toxicity reported from original Calibr screen data against HEK293T and HepG2 cell lines. FIG. 9B depicts toxicity determined using Promega CellTox reagents following 8 hours of exposure of HeLa, Caco-2, and HEK293 cells to varying concentrations of ARM-1. Relative fluorescent units (RFUs) reported relative to solvent and no substrate controls.
Cytotoxicity of ARM-1 against HeLa, Caco-2, and HEK293 cells was determined using CellTox Green Cytotoxicity Assay (Promega) according to manufacturer instructions. ARM-1 was diluted in DMSO and applied to the culture such that final concentrations of DMSO were less than 0.05%. Reported toxicity is relative to a DMSO only control. Cells were incubated with ARM-1 for 24 hours prior to addition of reporter dye. Fluorescence was read on a BioTek Synergy Neo plate reader.

Chain of Mfd (Q8ZQ01 entry or part of it): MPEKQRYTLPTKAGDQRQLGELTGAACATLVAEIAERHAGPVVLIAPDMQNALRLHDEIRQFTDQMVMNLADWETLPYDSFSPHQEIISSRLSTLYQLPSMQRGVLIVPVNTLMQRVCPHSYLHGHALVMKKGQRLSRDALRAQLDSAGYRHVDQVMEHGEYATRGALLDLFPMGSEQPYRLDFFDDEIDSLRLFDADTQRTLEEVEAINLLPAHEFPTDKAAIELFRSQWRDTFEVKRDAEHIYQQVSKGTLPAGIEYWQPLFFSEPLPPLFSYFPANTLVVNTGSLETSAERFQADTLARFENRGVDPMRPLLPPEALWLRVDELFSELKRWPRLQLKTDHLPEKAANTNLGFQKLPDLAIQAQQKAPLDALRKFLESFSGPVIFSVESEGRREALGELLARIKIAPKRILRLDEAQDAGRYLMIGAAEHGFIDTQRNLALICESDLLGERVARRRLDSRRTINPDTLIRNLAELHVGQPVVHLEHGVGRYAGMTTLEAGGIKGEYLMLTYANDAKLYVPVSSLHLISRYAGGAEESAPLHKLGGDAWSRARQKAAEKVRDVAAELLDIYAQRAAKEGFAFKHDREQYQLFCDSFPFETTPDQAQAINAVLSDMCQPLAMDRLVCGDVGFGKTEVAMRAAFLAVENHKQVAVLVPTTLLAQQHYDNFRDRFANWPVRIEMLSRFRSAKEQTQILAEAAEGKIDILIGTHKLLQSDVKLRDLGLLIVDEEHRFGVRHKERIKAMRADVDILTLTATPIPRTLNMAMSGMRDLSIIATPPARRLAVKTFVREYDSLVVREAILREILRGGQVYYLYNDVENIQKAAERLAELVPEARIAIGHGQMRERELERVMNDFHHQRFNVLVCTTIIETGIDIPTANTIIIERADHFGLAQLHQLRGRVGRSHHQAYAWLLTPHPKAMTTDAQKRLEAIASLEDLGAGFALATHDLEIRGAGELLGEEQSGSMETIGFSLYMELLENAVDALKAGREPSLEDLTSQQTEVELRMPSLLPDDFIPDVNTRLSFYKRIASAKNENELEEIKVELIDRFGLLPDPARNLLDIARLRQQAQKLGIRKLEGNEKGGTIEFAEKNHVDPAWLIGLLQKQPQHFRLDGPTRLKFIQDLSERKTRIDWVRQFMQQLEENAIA

Cc1cc(Br)ccc1-c1ccc(CNCCCN(C)C)o1 [ARM-1, N^1-((5-(4-bromo-2-methylphenyl)furan-2-yl)methyl)-N^3,N^3-dimethylpropane-1,3-diamine]
Kd (Mfd): 4.25 µM | defect in invasion or proliferation in HeLa cells (S. typhimurium ST19): Neither the Δmfd mutant nor ARM-1 or solvent-treated wild-type or Δmfd strains show a defect in invasion or proliferation | cytotoxic effects on HeLa cells (HeLa cells): no cytotoxic effects
